The record followed here is US20120329803A1, “Dihydropteridinones, method for production and use thereof” (BOEHRINGER INGELHEIM INTERNATIONAL GMBH, priority 2010, published 2012).

The target in one experiment is T1, hERG channel (Homo sapiens, UniProt Q12809).
T1 construct: expressed in transfected cells; host or cells: HEK293 cells, stably transfected; cDNA from M. Sanguinetti, University of Utah
Kind of experiment: hERG channel assay (whole-cell patch clamp). Format: cell-based. The note with it: HEK 293 cells stably transfected with hERG; 0.3, 1, 3, 10 μM tested; read-out: residual currents value (half-inhibitory concentration from fit to residual hERG current). As to the method:
HEK (human embryonic kidney) 293 cells are stably transfected with hERG cDNA (obtained courtesy of M. Sanguinetti, University of Utah). Cells determined for use in patch clamp experiments are plated on glass coverslips in 24 well plates and are cultivated without antibiotic during this time.
Coverslips are placed at the bottom of a 2 mL perfusion chamber mounted on the stage of an inverted microscope. Cells are superfused with a bath solution containing (mM): NaCl (137), KCl (4.0), MgCl2 (1.0), CaCl2 (1.8), Glucose (10), HEPES (10), pH 7.4 with NaOH. […]
Membrane currents are recorded using an EPC-10 or equivalent patch clamp amplifier (HEKA Electronics, Lambrecht, FRG) using the whole-cell configuration of the patch-clamp technique. hERG-mediated inactivating tail currents are elicited using a brief hyperpolarising pulse after channel inactivation at a depolarised potential.
Four concentrations of the compound of formula (12B) according to the present invention (0.3, 1, 3, 10 μM) are applied on different cells. A steady state level of baseline current is measured prior to the application of the test article. […]
Peak current amplitudes are measured for each hyperpolarising step. […] Residual currents (I/Io) are calculated for each cell as the fraction of actual average peak current and average baseline peak current. Current inhibition is expressed as (1−I/I0)*100%. […]
A general note: Block of hERG is tested as a sign of cardiac risk.

The next experiment deals with T2, human Plk1 enzyme (Homo sapiens, UniProt P53350).
T2 construct: The full-length coding region of the human Plk1 enzyme (residues 1-603); made in house; host or cells: Sf21 insect cells, baculovirus (pAcG2T vector, BD Biosciences)
Kind of experiment: Plk1 low enzyme inhibition (kinase) assay. It is filed as biochemical. Conditions: casein substrate, 7.5 μM ATP. The protocol:
(§1) Kinase assays are performed using full-length recombinant Plk1 enzyme produced in a baculovirus expression system and casein from bovine milk as a substrate. Results represent the means of 2 independent experiments with each data point measured in duplicate. NCI-H460 human non-small cell lung cancer and HCT 116 human colon carcinoma cell lines are used in Alamar Blue™ based proliferation assays. Results represent the means of 3 dose titrations for each cell line with each data point measured in duplicate. Two independent kinase assay experiments are carried out to determine the inhibitory activity of compound (12B) on the Plk1 enzyme. 7 concentrations of compound (12B) are used and each concentration is tested in duplicate measurements.
The compound is dissolved in DMSO at a concentration of 10 mM. For the proliferation assay and the first kinase assay the compound is freshly dissolved. For the second kinase assay a 10 mM stock solution in DMSO is used.
A baculoviral expression system is used to generate full-length recombinant Plk1 enzyme for the assay. Casein from bovine milk is used as a substrate. All other reagents are from the highest grade of purity commercially available. […]

For experiment [1], the system named is HCT 116 human colorectal carcinoma cells. Kind of experiment: Alamar Blue cell proliferation assay, HCT 116. Format: cell-based. The note with it: HCT 116 cells, 72 h. The protocol: as §1
(§2) For each cell line a proliferation assay experiment is carried out to determine the EC50 values in triplicate. 12 concentrations of each compound are used and each concentration is tested in duplicate measurements.
(§3) HCT 116 human colorectal carcinoma (ATCC CCL 247) and NCI-H460 human lung carcinoma (ATCC HTB-177) cells are used in an Alamar Blue™ based proliferation assay.
(§4) The Alamar Blue™ assay is designed to quantitatively measure the proliferation of cells by incorporating a fluorometric/colorimetric growth indicator that is based on the detection of metabolic activity in viable cells.
(§5) HCT 116 and NCI-H460 cells are grown in IMDM medium containing 10% FCS and 2 mM L-glutamine. They are maintained at 37° C. and 5% CO2 in a humidified atmosphere with a split ratio of 1:5. For proliferation assays in the 96-well format, penicillin-streptomycin is added to the medium at a final concentration of 100 u/ml penicillin and 100 μg/ml streptomycin.
(§6) On day one of the experiment, 1000 cells in 180 μl medium are seeded into each well of a sterile 96-well flat-bottom plate. The plates are kept in the incubator overnight. The compounds are dissolved in DMSO at a concentration of 1000 μM. On day two of the experiment, 12 serial dilutions (1:3) of the compounds are prepared in medium containing 0.1% DMSO. 20 μl of the dilutions are added to each well to yield a final volume of 200 μl per well. As a control, medium containing 0.1% DMSO is added to the designated wells. The cells are then incubated for 72 h. After this incubation period, 20 μl of Alamar Blue™ is added to each well. After 6 h of incubation, the plates are measured in a fluorescence spectrophotometer (excitation 531 nm, emission 595 nm, slits 15, integrate time 0.1). All data points are measured in duplicates.
(§7) The mean value from the duplicates is taken and the background is subtracted. The “0.1% DMSO value” (the mean value obtained from wells containing cells plus 0.1% DMSO containing medium) is taken as “100% control”. […]
(Resazurin is reduced to fluorescent resorufin, in cell work by metabolically active cells.)

Experiment [2] relates to NCI-H460 human lung carcinoma cells. Kind of experiment: Alamar Blue cell proliferation assay, NCI-H460. Format: cell-based. Conditions: 72 h. The protocol:
as §1, §2, §3, §4, §5, §6, §7

Where [3] appears, read: measurement 1, read-out: Measurement 1 EC50.
Setting [4] is: measurement 2, read-out: Measurement 2 EC50.
Where [5] appears, read: measurement 3, read-out: Measurement 3 EC50.

Values joined by “and” are separate entries in the source; they are usually repeats but may differ in a detail not shown here. Identical values can stand only once. Like-named read-outs stand apart in the source and are kept apart here.

T2 sequence (P53350 whole entry, the tested form may be a part): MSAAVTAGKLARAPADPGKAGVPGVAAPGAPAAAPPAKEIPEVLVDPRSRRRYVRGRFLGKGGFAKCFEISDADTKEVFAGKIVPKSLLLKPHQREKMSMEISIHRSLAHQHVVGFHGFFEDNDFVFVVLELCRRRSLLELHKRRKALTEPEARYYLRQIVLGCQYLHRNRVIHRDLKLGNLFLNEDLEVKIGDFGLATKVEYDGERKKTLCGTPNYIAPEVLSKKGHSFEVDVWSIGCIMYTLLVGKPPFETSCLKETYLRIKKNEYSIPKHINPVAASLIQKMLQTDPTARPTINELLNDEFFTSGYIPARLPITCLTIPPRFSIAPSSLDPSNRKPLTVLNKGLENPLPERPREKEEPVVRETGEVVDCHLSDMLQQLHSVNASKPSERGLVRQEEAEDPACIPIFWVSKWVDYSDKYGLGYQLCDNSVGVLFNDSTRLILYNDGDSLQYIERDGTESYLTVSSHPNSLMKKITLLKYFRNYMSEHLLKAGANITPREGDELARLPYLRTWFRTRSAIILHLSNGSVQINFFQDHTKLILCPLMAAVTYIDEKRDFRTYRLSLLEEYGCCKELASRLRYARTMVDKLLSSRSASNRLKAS
T1 sequence (Q12809 whole entry): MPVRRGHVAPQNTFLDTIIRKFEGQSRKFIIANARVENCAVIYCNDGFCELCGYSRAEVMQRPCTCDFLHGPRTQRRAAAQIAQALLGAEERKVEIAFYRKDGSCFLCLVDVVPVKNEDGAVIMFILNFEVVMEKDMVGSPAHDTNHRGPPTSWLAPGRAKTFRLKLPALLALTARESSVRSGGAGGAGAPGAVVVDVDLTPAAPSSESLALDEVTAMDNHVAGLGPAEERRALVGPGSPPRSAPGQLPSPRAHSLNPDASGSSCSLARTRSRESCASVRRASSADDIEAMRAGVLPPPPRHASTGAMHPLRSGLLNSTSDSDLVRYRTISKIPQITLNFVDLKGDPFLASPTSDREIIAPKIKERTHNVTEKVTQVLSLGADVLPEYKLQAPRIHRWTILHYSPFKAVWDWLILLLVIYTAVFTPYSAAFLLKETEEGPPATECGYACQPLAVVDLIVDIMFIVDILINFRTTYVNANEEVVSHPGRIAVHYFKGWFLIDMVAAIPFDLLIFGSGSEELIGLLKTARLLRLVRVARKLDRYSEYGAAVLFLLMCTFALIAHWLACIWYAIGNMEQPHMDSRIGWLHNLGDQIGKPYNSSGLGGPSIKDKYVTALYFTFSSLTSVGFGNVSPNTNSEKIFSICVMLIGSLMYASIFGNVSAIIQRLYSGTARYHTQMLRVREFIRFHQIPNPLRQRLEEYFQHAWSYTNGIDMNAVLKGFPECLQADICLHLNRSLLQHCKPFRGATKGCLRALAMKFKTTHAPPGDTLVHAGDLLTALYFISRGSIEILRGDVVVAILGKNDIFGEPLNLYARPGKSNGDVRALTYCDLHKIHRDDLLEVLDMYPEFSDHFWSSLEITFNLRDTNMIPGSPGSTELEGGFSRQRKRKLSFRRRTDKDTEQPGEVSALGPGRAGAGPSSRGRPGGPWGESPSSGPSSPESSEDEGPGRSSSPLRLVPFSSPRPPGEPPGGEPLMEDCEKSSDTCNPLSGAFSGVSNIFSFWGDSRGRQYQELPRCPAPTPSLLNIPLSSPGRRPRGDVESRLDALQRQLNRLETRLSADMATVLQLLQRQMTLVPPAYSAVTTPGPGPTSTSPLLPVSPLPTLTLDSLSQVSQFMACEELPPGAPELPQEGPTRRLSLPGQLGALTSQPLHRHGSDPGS

As for `CCC1(O)C(=O)N(C)c2cnc(Nc3ccc(C(=O)N[C@H]4CC[C@H](N5CCN(CC6CC6)CC5)CC4)cc3OC)nc2N1C(C)C` (some centres unmarked) [compound 12B], the IC50 at hERG channel was 9500 nM; on human Plk1 enzyme (mean of 2 independent experiments, read-out: Mean IC50), 8 nM; at human Plk1 enzyme (single experiments (experiment number 1, 2), read-out: IC50) it was 8.1 nM and 7.9 nM. Moreover, the EC50 (as a rule, the concentration that produces a half-maximal response) in experiment [1] (mean of 3, read-out: Mean EC50) came to 273 nM; in experiment [1] (setting [3]), 311 nM; in experiment [1] (setting [4]) it was 335 nM; in experiment [1] (setting [5]) it was 174 nM; in experiment [2] (mean of 3, read-out: Mean EC50), 430 nM; in experiment [2] (setting [3]) it was 517 nM. Besides, the EC50 in experiment [2] (setting [4]) came out at 471 nM; in experiment [2] (setting [5]), 302 nM.
